System: gene expression in etiolated eto1-4 seedlings
Assay: Transcriptional profiling (ATH1 GeneChip microarray) of etiolated eto1-4 seedlings
Assay type: in vivo, Arabidopsis thaliana
Description: For chemical treatments, seeds were sown on 0.5×MS agar medium supplemented with 10 μM chemicals (AVG, compounds 9393, 9370, and 7303) or DMSO (as control). Arabidopsis seeds were stratified in the dark at 4° C. for 4 days, then germinated in the dark for 3 days at 22° C. Approximately 2,000 etiolated seedlings of the wild type or eto1-4 were used to collect tissues for preparation of total RNA in each microarray experiment with Arabidopsis ATH1 GeneChip (Affymetrix). Extraction of RNA followed an established protocol (Chang, et al. (1993) Plant Mol. Biol. Rep. 11, 113-117). Total RNA (10 μg) was used to prepare biotinylated cRNA for hybridization to ATH1 GeneChip in the experiments disclosed herein. Experiments were repeated by 2 independent biological duplicates, and candidate genes present in both experiments were selected for further analysis. The MASS method was used for data analysis and normalization by all sample medium. Candidate genes were selected by the following criteria. First, genes with 1.5-fold differential expression between the wild type and eto1-4 were selected as the master gene pool, which was then used for comparison in treatments with AVG and individual exemplary compounds. Data were presented in hierarchical clustering and Venn diagram format. Agilent GeneSpring GX and Bioconductor software were used to analyze the expression profile data. Gene Ontology descriptions were generated by GeneSpring GX and further referred to the TAR GO database. Raw data are available in the GEO database (http://www.ncbi.nlm.nih.gov/geo) with Accession no. GSE20897.
The filtered and normalized expression data set from 22810 probes on the ATH1 Genechip was used for hierarchical clustering of gene expression profiles for comparison between AVG and the exemplary invention compounds in eto1-4. It was identified that 1,446 genes show at least 1.5-fold difference in expression between the WT and eto1-4 and used them as the master gene pool for clustering analysis (FIG. 7A). […] These genes likely contribute to the etiolated phenotype of eto1-4 by responding to elevated endogenous ethylene. To determine whether the exemplary compounds have specific r overlapping functions with AVG to suppress the eto1-4 phenotype, genes that are regulated by individual exemplary invention compounds and AVG for Venn diagram analysis were clustered (FIG. 7B). More than 63% of genes (356/561 for compound 9393; 389/561 for compound 9370; 399/561 for compound 7303; FIG. 7B) with expression associated with AVG were co-regulated by the exemplary invention compounds, which indicates an overlap function in suppression of the ethylene phenotype in eto1-4. […] Next genes co-regulated by all of the exemplary invention compounds and AVG were examined by performing a clustering analysis using the co-regulated genes identified in FIG. 7B: 356 (compound 9393 vs AVG), 389 (compound 9370 vs AVG) and 399 genes (compound 7303 vs AVG). It was uncovered that 276 genes were co-regulated by all of the exemplary invention compounds and AVG (FIG. 7C and Table 2). On the basis of GO descriptions generated by Gene Spring GX and TAIR database, the 276 genes were divided into subgroups related to their biological functions (Table 2). […] In addition, stress- and pathogenesis-related genes were among the co-regulated genes, possibly because ethylene is involved in both biotic and abiotic stresses.
Genes (1446 non-redundant loci) were selected by 1.5-fold differential expression between eto1-4 and WT as the master pool for analysis. These genes were used for comparison between chemical treatments by AVG and the exemplary invention compounds. The finalized 276 genes that are co-regulated by AVG and all of the exemplary invention compounds are shown. Locus ID also present in Nemhauser et al. (Nemhauser, et al. (2006) Cell 126, 467-475).

[1] = of 1446 genes differentially expressed between WT and eto1-4, 10 μM
[2] = ratio eto1-4 treated to eto1-4 (no treatment)

Structure (SMILES): Cc1ccc(C2CC(=O)c3cnc(NC4CCCC4)nc3C2)cc1 (centres unmarked) [Compound 9370]
- number of genes co-regulated with AVG (of 561 genes associated with AVG, 10 μM): 389 genes
- number of genes regulated (expression reverted close to WT) [1]: 728 genes
- percentage of genes regulated (expression reverted close to WT) [1]: 50.3%
- number of genes regulated specifically, not related to AVG treatment (of all genes regulated by the compound (629, 728, 650), 10 μM): 339 genes
- Signal Fold Change AT1G03457, unknown biological function [2]: 2.50
- Signal Fold Change AT1G03660, unknown biological function [2]: 2.61
- Signal Fold Change AT1G05010 ACC oxidase [2]: 0.28
- Signal Fold Change AT1G05760 jacalin lectin protein [2]: 3.58
- Signal Fold Change AT1G06720 expressed protein [2]: 1.28
- Signal Fold Change AT1G07280, unknown biological function [2]: 0.51
- Signal Fold Change AT1G07560 leucine-rich repeat protein kinase [2]: 2.24
- Signal Fold Change AT1G08650 phosphoenolpyruvate carboxylase kinase [2]: 2.03
- Signal Fold Change AT1G08990 glycogenin glucosyltransferase [2]: 2.25
- Signal Fold Change AT1G09530 phytochrome interacting factor 3 [2]: 0.28
- Signal Fold Change AT1G10760 starch excess protein (SEX1) [2]: 0.33
- Signal Fold Change AT1G13430, response to cytokinin stimulus, sulfotransferase protein [2]: 0.28
- Signal Fold Change AT1G14540 anionic peroxidase [2]: 0.53
- Signal Fold Change AT1G15380 lactoylglutathione lyase [2]: 2.66
- Signal Fold Change AT1G17970, unknown biological function [2]: 2.50
- Signal Fold Change AT1G18880 proton-dependent oligopeptide transport (POT) protein [2]: 1.93
- Signal Fold Change AT1G20190, cell wall organization and biogenesis, expansin (EXP11) [2]: 0.31
- Signal Fold Change AT1G22740 Ras-related protein (RAB7) [2]: 2.62
- Signal Fold Change AT1G23060, unknown biological function [2]: 0.36
- Signal Fold Change AT1G26930, unknown biological function [2]: 0.47
- Signal Fold Change AT1G27380 p21-rho-binding domain-containing protein [2]: 1.96
- Signal Fold Change AT1G29520, unknown biological function [2]: 1.93
- Signal Fold Change AT1G30750, unknown biological function [2]: 2.58
- Signal Fold Change AT1G31710 copper amine oxidase [2]: 4.67
- Signal Fold Change AT1G32410 vacuolar protein sorting 55 protein [2]: 2.06
- Signal Fold Change AT1G32560 late embryogenesis abundant group 1 domain-containing protein [2]: 1.59
- Signal Fold Change AT1G33470, unknown biological function [2]: 2.21
- Signal Fold Change AT1G33790, unknown biological function [2]: 0.18
- Signal Fold Change AT1G34040, unknown biological function [2]: 2.08
- Signal Fold Change AT1G35350, unknown biological function [2]: 4.97
- Signal Fold Change AT1G35612, unknown biological function [2]: 3.56
- Signal Fold Change AT1G42470, unknown biological function [2]: 4.28
- Signal Fold Change AT1G44800, unknown biological function [2]: 1.93
- Signal Fold Change AT1G44830 AP2-containing transcription factor [2]: 0.34
- Signal Fold Change AT1G48480 leucine-rich repeat trans-membrane protein kinase [2]: 2.68
- Signal Fold Change AT1G49660 expressed protein [2]: 0.34
- Signal Fold Change AT1G50560 cytochrome P450 [2]: 2.32
- Signal Fold Change AT1G52830 auxin-responsive protein [2]: 5.14
- Signal Fold Change AT1G56010 transcription activator NAC1 [2]: 2.65
- Signal Fold Change AT1G56020, unknown biological function [2]: 0.50
- Signal Fold Change AT1G58070, unknown biological function [2]: 2.32
- Signal Fold Change AT1G59590, unknown biological function [2]: 3.53
- Signal Fold Change AT1G59740 proton-dependent oligopeptide transport (POT) protein [2]: 0.39
- Signal Fold Change AT1G62290 aspartyl protease protein [2]: 0.27
- Signal Fold Change AT1G62510 lipid transfer protein [2]: 2.17
- Signal Fold Change AT1G62620, unknown biological function [2]: 2.47
- Signal Fold Change AT1G64200 V-ATPase E subunit [2]: 2.41
- Signal Fold Change AT1G65510, unknown biological function [2]: 2.74
- Signal Fold Change AT1G65920, unknown biological function [2]: 0.31
- Signal Fold Change AT1G66230 myb transcription factor (MYB20) [2]: 2.70
- Signal Fold Change AT1G67030 zinc finger (C2H2 type) protein [2]: 7.63
- Signal Fold Change AT1G68230, unknown biological function [2]: 2.55
- Signal Fold Change AT1G68520 zinc finger (B-box type) protein [2]: 2.74
- Signal Fold Change AT1G69570 Dof-type zinc finger-containing protein [2]: 3.22
- Signal Fold Change AT1G70210 cyclin delta-1 [2]: 3.28
- Signal Fold Change AT1G70850 Bet v I allergen protein [2]: 9.49
- Signal Fold Change AT1G70890 major latex protein [2]: 5.19
- Signal Fold Change AT1G71030 myb transcription factor (MYB2) [2]: 5.41
- Signal Fold Change AT1G71740, unknown biological function [2]: 2.84
- Signal Fold Change AT1G72230 plastocyanin like protein [2]: 3.09
- Signal Fold Change AT1G73220 sugar transporter protein [2]: 3.97
- Signal Fold Change AT1G73300 serine carboxypeptidase S10 protein [2]: 2.36
- Signal Fold Change AT1G73310 serine carboxypeptidase S10 protein [2]: 2.66
- Signal Fold Change AT1G73330 protease inhibitor [2]: 4.31
- Signal Fold Change AT1G73590 auxin efflux carrier protein [2]: 2.08
- Signal Fold Change AT1G73640, small GTPase mediated signal transduction, Ras-related GTP-binding protein [2]: 2.10
- Signal Fold Change AT1G73830 bHLH protein [2]: 0.37
- Signal Fold Change AT1G75500, unknown biological function [2]: 3.37
- Signal Fold Change AT1G76220, unknown biological function [2]: 3.55
- Signal Fold Change AT1G76500, photomorphogenesis, DNA-binding protein [2]: 0.42
- Signal Fold Change AT1G76540 cell division control protein [2]: 2.53
- Signal Fold Change AT1G76790, unknown biological function [2]: 3.90
- Signal Fold Change AT1G78240 dehydration-responsive protein [2]: 0.47
- Signal Fold Change AT1G80380 phosphoribulokinase [2]: 2.14
- Signal Fold Change AT2G01910, microtubule nucleation, microtubule associated protein (MAP65/ASE1) protein [2]: 2.62
- Signal Fold Change AT2G02820 myb transcription factor (MYB88) [2]: 4.00
- Signal Fold Change AT2G02850 plantacyanin [2]: 0.23
- Signal Fold Change AT2G16580 auxin-responsive protein [2]: 2.83
- Signal Fold Change AT2G16990, unknown biological function [2]: 2.79
- Signal Fold Change AT2G19590 ACC oxidase [2]: 0.28
- Signal Fold Change AT2G19970, unknown biological function [2]: 3.06
- Signal Fold Change AT2G20080, unknown biological function [2]: 3.75
- Signal Fold Change AT2G20670, unknown biological function [2]: 2.45
- Signal Fold Change AT2G21820, unknown biological function [2]: 0.85
- Signal Fold Change AT2G21880 Ras-related GTP-binding protein [2]: 3.99
- Signal Fold Change AT2G22860 phytosulfokines 2 (PSK2) [2]: 2.67
- Signal Fold Change AT2G24150 expressed protein (response to hormone stimulus) [2]: 2.23
- Signal Fold Change AT2G25900 zinc finger (CCCH-type) protein [2]: 1.48
- Signal Fold Change AT2G26070 expressed protein (response to ethylene stimulus) [2]: 0.28
- Signal Fold Change AT2G26440 pectinesterase protein [2]: 0.38
- Signal Fold Change AT2G26740 epoxide hydrolase [2]: 0.23
- Signal Fold Change AT2G27140 heat shock protein [2]: 2.43
- Signal Fold Change AT2G27370, unknown biological function [2]: 2.26
- Signal Fold Change AT2G28305, unknown biological function [2]: 3.16
- Signal Fold Change AT2G28410, unknown biological function [2]: 2.92
- Signal Fold Change AT2G29340 short-chain dehydrogenase [2]: 0.30
- Signal Fold Change AT2G29440, toxin catabolic process, glutathione S-transferase [2]: 0.20
- Signal Fold Change AT2G30360 CBL-interacting protein kinase 11 (CIPK11) [2]: 2.02
- Signal Fold Change AT2G33380 calcium-binding RD20 protein [2]: 0.21
- Signal Fold Change AT2G33990, unknown biological function [2]: 2.72
- Signal Fold Change AT2G34300, unknown biological function [2]: 0.33
- Signal Fold Change AT2G34500 cytochrome P450 [2]: 4.05
- Signal Fold Change AT2G34510, unknown biological function [2]: 2.70
- Signal Fold Change AT2G34700, unknown biological function [2]: 1.03
- Signal Fold Change AT2G35300 late embryogenesis abundant group 1 domain-containing protein [2]: 1.92
- Signal Fold Change AT2G35710 glycogenin glucosyltransferase [2]: 2.23
- Signal Fold Change AT2G36350 protein kinase [2]: 0.55
- Signal Fold Change AT2G36410, unknown biological function [2]: 2.60
- Signal Fold Change AT2G37130 peroxidase 21 [2]: 2.23
- Signal Fold Change AT2G38760, unknown biological function [2]: 4.10
- Signal Fold Change AT2G38790, unknown biological function [2]: 1.99
- Signal Fold Change AT2G39010 aquaporin [2]: 2.05
- Signal Fold Change AT2G39310, unknown biological function [2]: 2.73
- Signal Fold Change AT2G39980, unknown biological function [2]: 0.14
- Signal Fold Change AT2G40420 amino acid transporter [2]: 2.03
- Signal Fold Change AT2G41090, unknown biological function [2]: 0.19
- Signal Fold Change AT2G41230, unknown biological function [2]: 0.07
- Signal Fold Change AT2G42320, unknown biological function [2]: 0.53
- Signal Fold Change AT2G43050 pectinesterase protein [2]: 2.35
- Signal Fold Change AT2G43535 trypsin inhibitor [2]: 6.13
- Signal Fold Change AT2G44110 seven transmembrane MLO protein [2]: 0.39
- Signal Fold Change AT2G44130 kelch repeat containing F-box protein [2]: 3.39
- Signal Fold Change AT2G47510 fumarate hydratase [2]: 0.43
- Signal Fold Change AT2G47550 pectinesterase protein [2]: 0.39
- Signal Fold Change AT2G48030, unknown biological function [2]: 2.61
- Signal Fold Change AT3G04010 glycosyl hydrolase [2]: 1.98
- Signal Fold Change AT3G05990, signal transduction, phosphodiesterase leucine-rich repeat protein [2]: 2.15
- Signal Fold Change AT3G09020, unknown biological function [2]: 3.28
- Signal Fold Change AT3G09780 protein kinase [2]: 0.50
- Signal Fold Change AT3G10080, unknown biological function [2]: 2.52
- Signal Fold Change AT3G10340 phenylalanine ammonia-lyase [2]: 1.94
- Signal Fold Change AT3G11550, unknown biological function [2]: 2.39
- Signal Fold Change AT3G12030, DNA repair, expressed protein [2]: 2.17
- Signal Fold Change AT3G12500 basic endocexemplary inase [2]: 1.91
- Signal Fold Change AT3G13980, unknown biological function [2]: 6.74
- Signal Fold Change AT3G14370 protein kinase [2]: 0.30
